Results: the supplement of paper PMC4976141
± gives the uncertainty stated by the source.

Key:
[1] = tested on: COLO-205; assay: % viability in DMSO, miRNA mimic relative to NTC in DMSO; higher = less cytotoxic; conditions: drug used in drug arm: AZ628 1 uM; treatment: DMSO
Experimental: (§1)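 26 miRNA mimics were transfected into 8 cancer cell lines in triplicate. 48 h post-transfection, cells were treated 72 h with DMSO or a line-specific drug, then recovered 72 h drug-free. Drugs: COLO-205 AZ628 1 uM, MKN-45 crizotinib 1 uM, NCI-H596 paclitaxel 6 uM, EVSA-T GDC-0980 2.5 uM, M14 AZ628 1 uM, HCC-1954 GDC-0980 2.5 uM, NCI-H441 carboplatin 2.5 uM, SKBr3 lapatinib 1 uM. Surviving cells are expressed as % of NTC-transfected cells in DMSO (the NTC drug arm itself is about 30-50%), mean +- SEM.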

[2] = tested on: EVSA-T; assay: as above; conditions: drug used in drug arm: GDC-0980 2.5 uM; treatment: DMSO
Experimental: as §1

[3] = tested on: HCC-1954; assay: as above; conditions: drug used in drug arm: GDC-0980 2.5 uM; treatment: DMSO
Experimental: as §1

[4] = tested on: M14; assay: as above; conditions: drug used in drug arm: AZ628 1 uM; treatment: DMSO
Experimental: as §1

[5] = tested on: MKN-45; assay: as above; conditions: drug used in drug arm: crizotinib 1 uM; treatment: DMSO
Experimental: as §1

[6] = tested on: NCI-H441; assay: as above; conditions: drug used in drug arm: carboplatin 2.5 uM; treatment: DMSO
Experimental: as §1

[7] = tested on: NCI-H596; assay: as above; conditions: drug used in drug arm: paclitaxel 6 uM; treatment: DMSO
Experimental: as §1

[8] = tested on: SK-BR-3; assay: as above; conditions: drug used in drug arm: lapatinib 1 uM; treatment: DMSO
Experimental: as §1

[9] = tested on: COLO-205; assay: % viability under drug (72 h drug + 72 h recovery), miRNA mimic relative to NTC in DMSO; higher = more surviving cells; conditions: drug used in drug arm: AZ628 1 uM; treatment: drug
Experimental: as §1

[10] = tested on: EVSA-T; assay: as above; conditions: drug used in drug arm: GDC-0980 2.5 uM; treatment: drug
Experimental: as §1

[11] = tested on: HCC-1954; assay: as above; conditions: drug used in drug arm: GDC-0980 2.5 uM; treatment: drug
Experimental: as §1

[12] = tested on: M14; assay: as above; conditions: drug used in drug arm: AZ628 1 uM; treatment: drug
Experimental: as §1

[13] = tested on: MKN-45; assay: as above; conditions: drug used in drug arm: crizotinib 1 uM; treatment: drug
Experimental: as §1

[14] = tested on: NCI-H441; assay: as above; conditions: drug used in drug arm: carboplatin 2.5 uM; treatment: drug
Experimental: as §1

[15] = tested on: NCI-H596; assay: as above; conditions: drug used in drug arm: paclitaxel 6 uM; treatment: drug
Experimental: as §1

[16] = tested on: SK-BR-3; assay: as above; conditions: drug used in drug arm: lapatinib 1 uM; treatment: drug
Experimental: as §1

[17] = tested on: PC9; assay: cell count fold change with erlotinib, miRNA mimic vs non-targeting control (log2 ratio); higher = more drug-tolerant survivors than NTC; conditions: erlotinib 1 µM; 72 h drug + 72 h drug-free recovery; perturbation: miRNA mimic

Row | Sequence | % viability in DMSO [1] [%] | % viability in DMSO [2] [%] | % viability in DMSO [3] [%] | % viability in DMSO [4] [%] | % viability in DMSO [5] [%] | % viability in DMSO [6] [%] | % viability in DMSO [7] [%] | % viability in DMSO [8] [%] | % viability under drug [9] [%] | % viability under drug [10] [%] | % viability under drug [11] [%] | % viability under drug [12] [%] | % viability under drug [13] [%] | % viability under drug [14] [%] | % viability under drug [15] [%] | % viability under drug [16] [%] | cell count fold change with erlotinib [17]
1 | UAGGUAGUUUCAUGUUGUUGGG | 93.2 ± 4.5 | 11.4 ± 8.3 | 57.1 ± 7.2 | 69.5 ± 28 | 49.8 ± 27 | 23.3 ± 13 | 18.4 ± 2.9 | 39.6 ± 14 | 34.7 ± 0.96 | 0.1635 ± 0.0015 | 1.26 ± 0.1 | 6.29 ± 0.61 | 1.52 ± 0.25 | 6.39 ± 0.21 | 1.48 ± 0.34 | 16.1 ± 2.1 | -5.25
2 | GUCAUACACGGCUCUCCUCUCU | 106 ± 3.9 | 3.87 ± 1.8 | 29.6 ± 4.2 | 15.5 ± 2.3 | 10.5 ± 0.39 | 8.42 ± 0.15 | 9.78 ± 0.74 | 17.1 ± 4.5 | 33 ± 2.9 | 0.124 ± 0.028 | 1.04 ± 0.13 | 1.73 ± 0.53 | 0.526 ± 0.15 | 3.92 ± 0.51 | 0.466 ± 0.077 | 12.8 ± 1.4 | -5.7
3 | GCGAGGACCCCUCGGGGUCUGAC | 105.2 ± 0.58 | 40.8 ± 0.66 | 56.4 ± 10 | 43.3 ± 5.2 | 53.2 ± 7 | 21.6 ± 1.6 | 76.8 ± 10 | 48.4 ± 5 | 43 ± 1.1 | 1.21 ± 0.28 | 2.54 ± 0.19 | 8.07 ± 0.6 | 1.84 ± 0.18 | 7.07 ± 0.39 | 3.656 ± 0.036 | 16.6 ± 6.8 | 0.35
4 | AGUUAAUGAAUCCUGGAAAGU | 101.6 ± 0.44 | 26.1 ± 11 | 48.3 ± 2 | 55.5 ± 2.1 | 40.6 ± 10 | 61.6 ± 15 | 25.4 ± 6.1 | 33.3 ± 1.6 | 43.4 ± 1.2 | 0.344 ± 0.059 | 1.99 ± 0.45 | 9.17 ± 1.3 | 1.55 ± 0.042 | 14.3 ± 0.47 | 0.869 ± 0.086 | 19.2 ± 4 | -4.81
5 | AAAAGUAAUUGCGGAUUUUGCC | 101 ± 4.2 | 85.7 ± 0.94 | 117 ± 9.9 | 119 ± 24 | 136 ± 19 | 182 ± 14 | 95.4 ± 3.6 | 73.43 ± 0.24 | 42.6 ± 1 | 0.608 ± 0.1 | 3.99 ± 0.13 | 18 ± 0.42 | 4.35 ± 0.71 | 29.7 ± 2.4 | 1.3 ± 0.04 | 45.73 ± 0.37 | 0.467
6 | CAAAAGUAAUUGUGGAUUUUGU | 106 ± 1.7 | 39.3 ± 3.4 | 88.3 ± 15 | 62.9 ± 9 | 40.7 ± 3.5 | 62.3 ± 2.6 | 73.6 ± 2.9 | 46.3 ± 3.1 | 44.6 ± 3.2 | 0.243 ± 0.018 | 1.55 ± 0.17 | 14.1 ± 0.89 | 1.49 ± 0.11 | 13.6 ± 2 | 0.808 ± 0.028 | 20.2 ± 1.6 | -2.88
7 | AAAAGUACUUGCGGAUUUUGCU | 101 ± 4.5 | 64.63 ± 0.49 | 100 ± 4.8 | 99.3 ± 19 | 142 ± 17 | 67.7 ± 7.8 | 89.1 ± 8.1 | 161 ± 7.2 | 49.9 ± 1.1 | 1.66 ± 0.013 | 4.02 ± 0.49 | 22.8 ± 0.71 | 4.2 ± 0.41 | 11.3 ± 2.9 | 2.53 ± 0.066 | 49.8 ± 2.7 | -3.1
8 | AAGUGCCGCCAUCUUUUGAGUGU | 100.8 ± 0.28 | 12.3 ± 1.3 | 11.8 ± 0.37 | 15.7 ± 1.4 | 35.27 ± 0.22 | 13.71 ± 0.039 | 37.5 ± 5.6 | 22.2 ± 6.5 | 30.8 ± 0.9 | 0.157 | 0.919 ± 0.19 | 1.98 ± 0.13 | 0.444 ± 0.042 | 7.71 ± 2.4 | 0.265 ± 0.011 | 8.32 ± 0.77 | -4.45
9 | AACGCCAUUAUCACACUAAAUA | 106 ± 2 | 23.6 ± 3.1 | 81.2 ± 2.9 | 73.5 ± 3.2 | 27.1 ± 3.8 | 13.2 ± 1.1 | 62.43 ± 0.46 | 22.3 ± 5.5 | 43 ± 1.6 | 0.459 ± 0.079 | 2.25 ± 0.44 | 12.8 ± 0.75 | 1.35 ± 0.4 | 10.2 ± 2.8 | 0.97 ± 0.026 | 11.5 ± 1.4 | 0.733
